Measured values taken from patent publication US20150216870A1, “Combination of PI3K Inhibitor and C-Met Inhibitor” (Novartis AG, priority 2012, published 2015).
“Also recorded” adds a separate entry of the source.

Tests used:
NCI-H1573 = assay: Cell viability (CellTiterGlo) combination dose matrix in NCI-H1573; format: cell-based, human; settings: combination with c-Met inhibitor, 72 h, excluding highest concentration
Procedure: (§3) Compound stocks of both compounds are individually prepared in DMSO. Compounds are serially diluted using a Tecan dispenser to cover a ˜1000× range of concentrations. […] Both single agent and combinations are tested at multiple concentrations, along with controls and one self-cross.
(§4) The cell lines used in this study are purchased from American Type Cell Collection, including human non small cell lung cancer cell lines EBC-1 (which bears c-Met amplification), NCI-H1993 (which bears c-MET amplified), NCI-H1648 (which bears c-Met amplification), NCI-H1573 (which bears c-Met amplification and KRAS mutation) and HCC2935 (EGFR mutation). All cell lines are maintained in their respective culture medium as specified by the provider.
(§5) For the assessment of combination effects, cells are seeded into 384-well plates at 500 cells/well and incubated overnight. […]
(§6) Effects of single agents as well as their combination on cell viability is assessed after 72 hours of incubation at 37° C./5% CO2 by quantification of cellular ATP levels (CellTiterGlo, Promega) using 25 μL reagent/well and n=2 replicate plates per condition. The number/viability of cells at time of compound addition is likewise assessed and used to estimate the population doubling time of a cell line.
(§7) For untreated and treated levels U and T, inhibition is calculated using the formula I=1−T/U, which ranges from 0% to 100% for complete inhibition. […]
(§8) The Loewe expectation [Loewe S., Ergebn Physiol 27: 47-187 (1928)) is calculated at each dose pair CX,Y by finding the inhibition ILoewe such that (CX/ICX)+(CY/ICY)=1, and ICX,Y are the effective concentrations at ILoewe for the fitted single agent curves, using numerical optimization [Berenbaum M C, J Theor Biol 114: 413-431 (1985)]. The “synergy score” S is calculated by averaging the difference between Idata and ILoewe across all the tested combination dose points, excluding the highest concentration point in the dose matrix, which is most likely to be dominated by drug off-target effects. […]

NCI-H1993 = assay: Cell viability (CellTiterGlo) combination dose matrix in NCI-H1993; format: cell-based, human; settings: combination with c-Met inhibitor, 72 h, excluding highest concentration
Procedure: as §3, §4, §5, §6, §7, §8

EBC-1 = assay: Cell viability (CellTiterGlo) combination dose matrix in EBC-1; format: cell-based, human; settings: combination with c-Met inhibitor, 72 h, excluding highest concentration, 0 no inhibition, 1 = 100% inhibition/stasis, 2 = cell death
Procedure: as §3, §4, §5, §6, §7, §8

NCI-H1648 = assay: Cell viability (CellTiterGlo) combination dose matrix in NCI-H1648; format: cell-based, human; settings: combination with c-Met inhibitor, 72 h, excluding highest concentration
Procedure: as §3, §4, §5, §6, §7, §8

HCC2935 = assay: Cell viability (CellTiterGlo) combination dose matrix in HCC2935; format: cell-based, human; settings: combination with c-Met inhibitor, 72 h, excluding highest concentration
Procedure: as §3, §4, §5, §6, §7, §8

[1] = Toxicity (body weight, deaths) in NCI-H1993 xenograft study; format: in vivo; settings: COMPOUND D 30 mg/kg p.o. qd to end
Procedure: (§1) Animals are weighed on Days 1-5, on each treatment day (except weekends), and twice weekly thereafter, until the end of the study. The maximum group mean body weight (BW) loss is determined for the interval between D1 and D20 as well as for the entire study. Group mean BW nadir determinations exclude measurements taken after more than 50% of the assessable mice in the group have exited the study, and also exclude any animal that was classified as a non-treatment related (NTR) death during the study. Acceptable toxicity for the maximum tolerated dose (MTD) is defined as a group mean BW loss of less than 15% during the test, and not more than one TR death among ten animals. Any animal with BW losses exceeding 15% for three consecutive measurements, or with a BW loss exceeding 20% for one measurement, are euthanized, and classified as a TR death unless it was the first death in the group. A death is classified as NTR if there was no evidence that the death is related to treatment side effects and the death occurs more than 14 days after dosing ended. NTR deaths are categorized as NTRa (due to accident or error), NTRu (due to unknown causes), or NTRm (necropsy-confirmed tumor dissemination by invasion and/or metastasis). To conserve animals while providing maximum information, the first death in a group was classified as NTRu; such an NTR death was to be reclassified as TR if two subsequent TR deaths are recorded in the same group.

[2] = tested on: NCI-H1993 human non-small cell lung carcinoma xenograft; assay: NCI-H1993 xenograft tumor growth inhibition and tumor growth delay; format: in vivo, athymic nude mice; settings: COMPOUND D 30 mg/kg p.o. qd to end
Source text: In this experiment, the NCI-H1993 human non-small cell lung carcinoma xenograft model is used to assess the anti-tumor efficacy of the PI3K inhibitor COMPOUND D and c-Met inhibitor 2-fluoro-N-methyl-4-[7-quinolin-6-yl-methyl)-imidazo[1,2-b][1,2,4]triazin-2yl]benzamide as single agents or in combination. NCI-H1993 tumor cells obtained from the American Type Culture Collection (ATCC) are derived from a lymph node metastasis of a patient having a stage 3A lung adenocarcinoma and a history of smoking.
(§2) Female athymic nude mice (Crl:NU (Ncr)-Foxn1^nu, Charles River) are 8 weeks old, and have a body weight (BW) range of 16.1-26.2 g, on D1 of the study. The animals are fed ad libitum water (reverse osmosis, 1 ppm CI) and NIH 31 Modified and Irradiated Lab Diet® consisting of 18.0% crude protein, 5.0% crude fat, and 5.0% crude fiber. The mice are housed on irradiated Enrich-O'cobs™ Laboratory Animal Bedding in static microisolators on a 12-hour light cycle at 20-22° C. (68-72° F.) and 40-60% humidity.
The NCI-H1993 tumor line is obtained from the American Type Culture Collection and maintained at DRS_NC in RPMI-1640 medium containing 100 unites/penicillin G sodium, 100 µg/mL streptomycin sulfate, 25 µg/mL gentamicin, 10% fetal bovine serum, and 2 mM glutamine. The tumor cells are cultured in tissue culture flasks in a humidified incubator at 37° C. in an atmosphere of 5% CO2 and 95% air.
The tumor cells used for implementation are harvested during log phase growth and resuspended in cold PBS containing 50% Matrigel™ (BD Biosciences). Each mouse is injected subcutaneously in the right flank with 1×10^7 cells (0.2 mL cell suspension). Tumors are calipered in two dimensions to monitor growth as their mean volume approached the desired 200-250 mm^3 range. Tumor size, in mm^3, was calculated from: Tumor Volume=(width^2×length)/2, where width and length (in mm) are measurements of the tumor. Tumor weight can be estimated with the assumption that 1 mg is equivalent to 1 mm^3 of tumor volume. Fourteen days after tumor cell implantation, on D1 of the study, mice with individual tumor volumes of 172-256 mm^3 are sorted into groups of ten mice, with group mean tumor volumes of 206-215 mm^3.
The c-Met inhibitor 2-fluoro-N-methyl-4-[7-quinolin-6-yl-methyl)-imidazo[1,2-b][1,2,4]triazin-2yl]benzamide (HCl salt, 84.98% free base) is stored at 4° C. and is added to a volume of deionized water equal to 1/2 of the final volume and sonicated until dissolved to obtain a uniform 2× suspension. An equal volume of 0.5% methylcellulose: 0.1% Tween® 80 is added to provide a 1.77 mg/mL solution with final vehicle concentrations of 0.25% methylcellulose and 0.05% Tween® 80 in deionized water (Vehicle 1). Fresh solutions are prepared once daily for the […]. dosing and stored at room temperature until the a.m. dosing.
COMPOUND D is suspended at 3.0 mg/mL in 0.5% methylcellulose in deionized water. The vehicle is added in portions equal to 1/3 of the final volume. The suspension is vortexed after each addition, and then finally probe sonicated on ice to prepare a homogeneous white suspension. A fresh suspension is prepared weekly, stored at 4° C., and re-suspended prior to dosing.
The c-MET inhibitor and the vehicle is each administered via oral gavage (p.o.) twice daily for the duration of the study (b.i.d. to end). COMPOUND D is administered via oral gavage (p.o.) once daily for the duration of the study (qd to end). In combination therapies, COMPOUND D is dosed within 30 minutes after the c-Met inhibitor. In all groups, the dosing volume of 10 mL/kg (0.2 mL/20 g mouse) is scaled to the weight of each animal as determined on the day of dosing, except on weekends when the previous BW is carried forward.
The groups of nude mice (n=10/group) are treated as follows. Group 1 receive Vehicle 1 and Vehicle 2 and serve as controls for the study. […] Group 3 receives 30 mg/kg COMPOUND D monotherapy once daily for the duration of the study (qd to end).

[3] = Toxicity (deaths) in U-87 MG xenograft study; format: in vivo; settings: temozolomide 100 mg/kg p.o. qd x5
Source text: as §1, with “the study. Group mean” for “the study. The maximum group mean body weight (BW) loss is determined for the interval between D1 and D20 as well as for the entire study. Group mean”, “the group had exited the” for “the group have exited the”, “and also excluded any animal” for “and also exclude any animal”, “classified as an NTR death during” for “classified as a non-treatment related (NTR) death during”, “classified as Non-Treatment Related (NTR) if there” for “classified as NTR if there”

[4] = tested on: U-87 MG human glioblastoma xenograft; assay: U-87 MG xenograft tumor growth inhibition and tumor growth delay; format: in vivo, nude mice; settings: temozolomide 100 mg/kg p.o. qd x5
Procedure: In this experiment, the U-87 MG human glioblastoma xenograft model is used to assess the anti-tumor efficacy of the PI3K inhibitor COMPOUND C and c-Met inhibitor 2-fluoro-N-methyl-4-[7-quinolin-6-yl-methyl)-imidazo[1,2-b][1,2,4]triazin-2yl]benzamide as single agents or in combination. U-87 MG tumor cells obtained from the National Cancer Institute are reported to be homozygous for likely oncogenic variants of CDKN2A, CDKN2C, CDKN2a, and PTEN; no mutations are detected in MET, PIK3CA, or 58 other genes that are frequently altered in neoplastic cells; and HGF expressing.
Mice are treated daily for 21 days with 17.7 and 35.3 mg/kg of the c-Met inhibitor and 32.7 mg/kg COMPOUND C monotherapies, and with the c-Met inhibitor/COMPOUND C dual therapy at 17.7:32.7. An c-Met inhibitor/COMPOUND C combination at the 58.8:5.4 mg/kg dose ratio was included in the study. The control mice received both vehicles, and a standard preclinical temozolomide regimen monitored tumor model performance. The oral treatments began on Day 1 (D1) in nude mice with established subcutaneous tumors. Each animal was euthanized when its tumor reached the predetermined 2000 mm3 endpoint volume, or on D60, whichever came first. The study was terminated on D51. […] Overall efficacy was determined from the times required for tumors to progress to the volume endpoint, and from D51 survival and regression rates. This report describes the methods and results of the U87MG-e326 tumor growth delay experiment.
as §2, with “The” for “Female athymic nude mice (Crl:NU (Ncr)-Foxn1^nu, Charles River) are 8 weeks old, and have a body weight (BW) range of 16.1-26.2 g, on D1 of the study. The”
The U-87 MG tumor line is obtained from the American Type Culture Collection and maintained by serial engraftment in nude mice. A tumor fragment (1 mm^3) is implanted subcutaneously into the right flank of each test mouse. Tumors are calipered in two dimensions to monitor growth as their mean volume approached the desired 100-150 mm^3 range. Tumor size, in mm^3, was calculated from: Tumor Volume=(width^2×length)/2, where width and length (in mm) are measurements of the tumor. Tumor weight can be estimated with the assumption that 1 mg is equivalent to 1 mm^3 of tumor volume. Fourteen days after tumor cell implantation, on D1 of the study, mice with individual tumor volumes of 63-196 mm^3 are sorted into seven groups, with group mean tumor volumes of 122-127 mm^3.
The c-Met inhibitor 2-fluoro-N-methyl-4-[7-quinolin-6-yl-methyl)-imidazo[1,2-b][1,2,4]triazin-2yl]benzamide (di-HCl salt, 84.98% free base) is stored at 4° C. and is added to deionized water at 2× the final concentration and sonicated until dissolved. An equal volume of 0.5% methylcellulose and 0.1% Tween® 80 in deionized water is added to provide a 5.884 mg/mL dosing solution in 0.25% methylcellulose and 0.05% Tween® 80 in deionized water (Vehicle 1). Portions of this solution are diluted with Vehicle 1 to provide 3.53 and 1.765 mg/mL dosing solutions.
COMPOUND C (HCl salt, 91.85% free base) is stored at −20° C. and is added to 1% Tween® 80 in deionized water and sonicated to obtain a uniform suspension at 2× the final concentration. […] The 0.544 mg/mL dosing suspension is obtained by diluting a portion of the first suspension with Vehicle 2.

| Structure (SMILES) | MaxGI (GImax, combination effectiveness) (NCI-H1573) | MaxGI (GImax, combination effectiveness) (NCI-H1993) | MaxGI (GImax, combination effectiveness) (EBC-1) | MaxGI (GImax, combination effectiveness) (NCI-H1648) | MaxGI (GImax, combination effectiveness) (HCC2935) | Deaths [1] | tolerability (in words) [1] | % TGD [2] [%] | D20 tumor growth inhibition / activity (in words) [2] | T-C [2] [days] | T/C or T/T0 ([2]; D20) [%] | Median TTE ([2]; endpoint 600 mm3) [days] | Regression: PR ([2]; number of animals) [PR] | overall survival (in words) ([2]; vs control Group 1) | Deaths [3] | % TGD [4] [%] | T/C or T/T0 ([4]; D13) [%] | Median TTE ([4]; endpoint 2000 mm3) [days] | Regress. ([4]; number of animals) |
| --- | --- | --- | --- | --- | --- | --- | --- | --- | --- | --- | --- | --- | --- | --- | --- | --- | --- | --- | --- |
| Cn1c(=O)n(-c2ccc(C(C)(C)C#N)cc2)c2c3cc(-c4cnc5ccccc5c4)ccc3ncc21 [COMPOUND A, 2-methyl-2-[4-(3-methyl-2-oxo-8-quinolin-3-yl-2,3-dihydro-imidazo[4,5-c]quinolin-1-yl)-phenyl]-propionitrile] | 1.90 | 1.33 | 1.90 | 1.72 | 1.36 |  |  |  |  |  |  |  |  |  |  |  |  |  |  |
| Cc1nc(NC(=O)N2CCC[C@H]2C(N)=O)sc1-c1ccnc(C(C)(C)C(F)(F)F)c1 [COMPOUND D, (S)-Pyrrolidine-1,2-dicarboxylic acid 2-amide 1-({4-methyl-5-[2-(2,2,2-trifluoro-1,1-dimethyl-ethyl)-pyridin-4-yl]-thiazol-2-yl}-amide)] | 0.57 | 1.21 | 1.87 | 1.37 | 0.77 | (0) | Well-tolerated | −4 | non-significant median tumor growth acceleration; also recorded: not significantly active (inactive) | -1.1 | 117 | 24.0 | 1 | non-significantly briefer overall survival than control |  |  |  |  |  |
| Cn1nnc2c(C(N)=O)ncn2c1=O [Temozolomide, reference compound] |  |  |  |  |  |  |  |  |  |  |  |  |  |  | (0) | 51 | 48 | 17.7 | 0 |
